Results published in patent US9695155B2, “Herbicidal substituted pyrimidinyloxy benzene compounds” (E. I. DU PONT DE NEMOURS AND COMPANY, priority 2013, dated 2017).

Tests used:
giant foxtail [1] = experiment: Test A postemergence; type: in vivo, Setaria faberii
Method in brief: (§1)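 Injury scores run from 0, no effect, to 100, complete control, judged by eye against untreated plants roughly 10 days after treatment. Chemicals carried a surfactant in a non-phytotoxic solvent and went onto loam–sand soil preemergence or onto one- to two-leaf seedlings postemergence.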

giant foxtail [2] = experiment: Test A preemergence; type: in vivo, Setaria faberii; details: for Plant response rating, Foxtail, Giant: 125 g ai/ha, 0 to 100 scale where 0 is no effect and 100 is complete control; for Foxtail, Giant plant response rating: 500 g ai/ha, 0 to 100 scale, 0 no effect, 100 complete control, approx. 10 days
Description: (§2) Seeds of plant species selected from barnyardgrass (Echinochloa crus-galli), kochia (Kochia scoparia), ragweed (common ragweed, Ambrosia elatior), Italian ryegrass (Lolium multiflorum), large (Lg) crabgrass (Digitaria sanguinalis), giant foxtail (Setaria faberii), morningglory (Ipomoea spp.), pigweed (Amaranthus retroflexus), velvetleaf (Abutilon theophrasti), wheat (Triticum aestivum), and corn (Zea mays) were planted into a blend of loam soil and sand and treated preemergence with a directed soil spray using test chemicals formulated in a non-phytotoxic solvent mixture which included a surfactant.
(§3) At the same time, plants selected from these crop and weed species and also blackgrass (Alopecurus myosuroides), and galium (catchweed bedstraw, Galium aparine) were planted in pots containing the same blend of loam soil and sand and treated with postemergence applications of test chemicals formulated in the same manner. Plants ranged in height from 2 to 10 cm and were in the one- to two-leaf stage for the postemergence treatment. Treated plants and untreated controls were maintained in a greenhouse for approximately 10 days, after which time all treated plants were compared to untreated controls and visually evaluated for injury. Plant response ratings, summarized in Table A, are based on a 0 to 100 scale where 0 is no effect and 100 is complete control. A dash (-) response means no test result.

large (Lg) crabgrass [3] = experiment: Test A preemergence; type: in vivo, Digitaria sanguinalis; details: for Plant response rating, Crabgrass, Large: 125 g ai/ha, 0 to 100 scale where 0 is no effect and 100 is complete control; for Crabgrass, Large plant response rating: 500 g ai/ha, 0 to 100 scale, 0 no effect, 100 complete control, approx. 10 days
Method in brief: as §1

pigweed [4] = experiment: Test A preemergence; type: in vivo, Amaranthus retroflexus; details: for Plant response rating, Pigweed: 125 g ai/ha, 0 to 100 scale where 0 is no effect and 100 is complete control; for Pigweed plant response rating: 500 g ai/ha, 0 to 100 scale, 0 no effect, 100 complete control, approx. 10 days
Method in brief: as §1

large (Lg) crabgrass [5] = experiment: Test A postemergence; type: in vivo, Digitaria sanguinalis
Method in brief: as §1

barnyardgrass [6] = experiment: Test B flooded paddy test; type: in vivo, Echinochloa crus-galli; details: Flood, 250 g ai/ha; 0 to 100 scale where 0 is no effect and 100 is complete control
Experimental: (§4) Plant species in the flooded paddy test selected from rice (Oryza sativa), sedge, umbrella (small-flower umbrella sedge, Cyperus difformis), (Heteranthera limosa), and barnyardgrass (Echinochloa crus-galli) were grown to the 2-leaf stage for testing. At time of treatment, test pots were flooded to 3 cm above the soil surface, treated by application of test compounds directly to the paddy water, and then maintained at that water depth for the duration of the test. Treated plants and controls were maintained in a greenhouse for 13 to 15 days, after which time all species were compared to controls and visually evaluated. Plant response ratings, summarized in Table B, are based on a scale of 0 to 100 where 0 is no effect and 100 is complete control. A dash (-) response means no test result.

corn [7] = experiment: Test A preemergence; type: in vivo, Zea mays; details: for Plant response rating, Corn: 125 g ai/ha, 0 to 100 scale where 0 is no effect and 100 is complete control; for Corn plant response rating: 500 g ai/ha, 0 to 100 scale, 0 no effect, 100 complete control, approx. 10 days
Description: as §2, §3

velvetleaf [8] = experiment: Test A postemergence; type: in vivo, Abutilon theophrasti
Method in brief: as §1

wheat [9] = experiment: Test A preemergence; type: in vivo, Triticum aestivum; details: for Plant response rating, Wheat: 125 g ai/ha, 0 to 100 scale where 0 is no effect and 100 is complete control; for Wheat plant response rating: 500 g ai/ha, 0 to 100 scale, 0 no effect, 100 complete control, approx. 10 days
Method in brief: as §1

barnyardgrass [10] = experiment: Test A preemergence; type: in vivo, Echinochloa crus-galli; details: for Plant response rating, Barnyardgrass: 125 g ai/ha, 0 to 100 scale where 0 is no effect and 100 is complete control; for Barnyardgrass plant response rating: 500 g ai/ha, 0 to 100 scale, 0 no effect, 100 complete control, approx. 10 days
Method in brief: as §1

morningglory = experiment: Test A preemergence; type: in vivo, Ipomoea spp.; details: for Plant response rating, Morningglory: 125 g ai/ha, 0 to 100 scale where 0 is no effect and 100 is complete control; for Morningglory plant response rating: 500 g ai/ha, 0 to 100 scale, 0 no effect, 100 complete control, approx. 10 days
Method in brief: as §1

wheat [11] = experiment: Test A postemergence; type: in vivo, Triticum aestivum
Description: as §2, §3

corn [12] = experiment: Test A postemergence; type: in vivo, Zea mays
Method in brief: as §1

barnyardgrass [13] = experiment: Test A postemergence; type: in vivo, Echinochloa crus-galli
Method in brief: as §1

velvetleaf [14] = experiment: Test A preemergence; type: in vivo, Abutilon theophrasti; details: for Plant response rating, Velvetleaf: 125 g ai/ha, 0 to 100 scale where 0 is no effect and 100 is complete control; for Velvetleaf plant response rating: 500 g ai/ha, 0 to 100 scale, 0 no effect, 100 complete control, approx. 10 days
Description: as §2, §3

pigweed [15] = experiment: Test A postemergence; type: in vivo, Amaranthus retroflexus
Method in brief: as §1

sedge, umbrella = experiment: Test B flooded paddy test; type: in vivo, Cyperus difformis; details: Flood, 250 g ai/ha; 0 to 100 scale where 0 is no effect and 100 is complete control
Experimental: as §4

rice = experiment: Test B flooded paddy test; type: in vivo, Oryza sativa; details: Flood, 250 g ai/ha; 0 to 100 scale where 0 is no effect and 100 is complete control
Experimental: as §4

Heteranthera limosa = experiment: Test B flooded paddy test; type: in vivo; details: Flood, 250 g ai/ha; 0 to 100 scale where 0 is no effect and 100 is complete control
Experimental: as §4

[16] = 125 g ai/ha, 0 to 100 scale where 0 is no effect and 100 is complete control
[17] = 500 g ai/ha, 0 to 100 scale, 0 no effect, 100 complete control

Cc1nn(-c2ccccc2Oc2ncc(Cl)cn2)cc1Br [Compound 37]
Plant response rating, Foxtail, Giant (giant foxtail [1]; [16]): 0
Plant response rating, Foxtail, Giant (giant foxtail [1]; [17]): 0
Plant response rating, Foxtail, Giant (giant foxtail [2]): 10
Foxtail, Giant plant response rating (giant foxtail [2]): 30
Plant response rating, Crabgrass, Large (large (Lg) crabgrass [3]): 10
Crabgrass, Large plant response rating (large (Lg) crabgrass [3]): 80
Plant response rating, Pigweed (pigweed [4]): 0
Pigweed plant response rating (pigweed [4]): 0
Plant response rating, Crabgrass, Large (large (Lg) crabgrass [5]; [16]): 0
Plant response rating, Crabgrass, Large (large (Lg) crabgrass [5]; [17]): 0
Plant response rating, Barnyardgrass (barnyardgrass [6]): 0
Plant response rating, Corn (corn [7]): 0
Corn plant response rating (corn [7]): 0
Plant response rating, Velvetleaf (velvetleaf [8]; [16]): 20
Plant response rating, Velvetleaf (velvetleaf [8]; [17]): 40
Plant response rating, Wheat (wheat [9]): 0
Wheat plant response rating (wheat [9]): 0
Plant response rating, Barnyardgrass (barnyardgrass [10]): 0
Barnyardgrass plant response rating (barnyardgrass [10]): 10
Plant response rating, Morningglory (morningglory): 0
Morningglory plant response rating (morningglory): 0
Plant response rating, Wheat (wheat [11]; [16]): 0
Plant response rating, Wheat (wheat [11]; [17]): 0
Plant response rating, Corn (corn [12]; [16]): 0
Plant response rating, Corn (corn [12]; [17]): 0
Plant response rating, Barnyardgrass (barnyardgrass [13]; [16]): 0
Plant response rating, Barnyardgrass (barnyardgrass [13]; [17]): 0
Plant response rating, Velvetleaf (velvetleaf [14]): 10
Velvetleaf plant response rating (velvetleaf [14]): 10
Plant response rating, Pigweed (pigweed [15]; [16]): 0
Plant response rating, Pigweed (pigweed [15]; [17]): 10
Plant response rating, Sedge, Umbrella (sedge, umbrella): 0
Plant response rating, Rice (rice): 0
Plant response rating, Ducksalad (Heteranthera limosa): 0

Cc1ccn(-c2ccccc2Oc2ncc(Cl)cn2)n1 [Compound 36]
Plant response rating, Foxtail, Giant (giant foxtail [1]; [16]): 0
Plant response rating, Foxtail, Giant (giant foxtail [1]; [17]): 0
Plant response rating, Foxtail, Giant (giant foxtail [2]): 0
Foxtail, Giant plant response rating (giant foxtail [2]): 20
Plant response rating, Crabgrass, Large (large (Lg) crabgrass [3]): 0
Crabgrass, Large plant response rating (large (Lg) crabgrass [3]): 70
Plant response rating, Pigweed (pigweed [4]): 0
Pigweed plant response rating (pigweed [4]): 20
Plant response rating, Crabgrass, Large (large (Lg) crabgrass [5]; [16]): 0
Plant response rating, Crabgrass, Large (large (Lg) crabgrass [5]; [17]): 10
Plant response rating, Barnyardgrass (barnyardgrass [6]): 0
Plant response rating, Corn (corn [7]): 0
Corn plant response rating (corn [7]): 0
Plant response rating, Velvetleaf (velvetleaf [8]; [16]): 20
Plant response rating, Velvetleaf (velvetleaf [8]; [17]): 70
Plant response rating, Wheat (wheat [9]): 0
Wheat plant response rating (wheat [9]): 0
Plant response rating, Barnyardgrass (barnyardgrass [10]): 0
Barnyardgrass plant response rating (barnyardgrass [10]): 0
Plant response rating, Wheat (wheat [11]; [16]): 0
Plant response rating, Wheat (wheat [11]; [17]): 0
Plant response rating, Corn (corn [12]; [16]): 0
Plant response rating, Corn (corn [12]; [17]): 0
Plant response rating, Barnyardgrass (barnyardgrass [13]; [16]): 0
Plant response rating, Barnyardgrass (barnyardgrass [13]; [17]): 0
Plant response rating, Velvetleaf (velvetleaf [14]): 0
Velvetleaf plant response rating (velvetleaf [14]): 20
Plant response rating, Pigweed (pigweed [15]; [16]): 0
Plant response rating, Pigweed (pigweed [15]; [17]): 20
Plant response rating, Sedge, Umbrella (sedge, umbrella): 0
Plant response rating, Rice (rice): 0
Plant response rating, Ducksalad (Heteranthera limosa): 0

Cc1nn(-c2ccccc2Oc2ncc(Cl)cn2)cc1Cl [Compound 38]
Plant response rating, Foxtail, Giant (giant foxtail [1]; [16]): 0
Plant response rating, Foxtail, Giant (giant foxtail [1]; [17]): 0
Plant response rating, Foxtail, Giant (giant foxtail [2]): 0
Foxtail, Giant plant response rating (giant foxtail [2]): 20
Plant response rating, Crabgrass, Large (large (Lg) crabgrass [3]): 0
Crabgrass, Large plant response rating (large (Lg) crabgrass [3]): 40
Plant response rating, Pigweed (pigweed [4]): 0
Pigweed plant response rating (pigweed [4]): 0
Plant response rating, Crabgrass, Large (large (Lg) crabgrass [5]; [16]): 0
Plant response rating, Crabgrass, Large (large (Lg) crabgrass [5]; [17]): 10
Plant response rating, Barnyardgrass (barnyardgrass [6]): 0
Plant response rating, Corn (corn [7]): 0
Corn plant response rating (corn [7]): 0
Plant response rating, Velvetleaf (velvetleaf [8]; [16]): 10
Plant response rating, Velvetleaf (velvetleaf [8]; [17]): 20
Plant response rating, Wheat (wheat [9]): 0
Wheat plant response rating (wheat [9]): 0
Plant response rating, Barnyardgrass (barnyardgrass [10]): 0
Barnyardgrass plant response rating (barnyardgrass [10]): 0
Plant response rating, Morningglory (morningglory): 0
Morningglory plant response rating (morningglory): 0
Plant response rating, Wheat (wheat [11]; [16]): 0
Plant response rating, Wheat (wheat [11]; [17]): 0
Plant response rating, Corn (corn [12]; [16]): 0
Plant response rating, Corn (corn [12]; [17]): 0
Plant response rating, Barnyardgrass (barnyardgrass [13]; [16]): 0
Plant response rating, Barnyardgrass (barnyardgrass [13]; [17]): 0
Plant response rating, Velvetleaf (velvetleaf [14]): 0
Velvetleaf plant response rating (velvetleaf [14]): 10
Plant response rating, Pigweed (pigweed [15]; [16]): 0
Plant response rating, Pigweed (pigweed [15]; [17]): 10
Plant response rating, Sedge, Umbrella (sedge, umbrella): 30
Plant response rating, Rice (rice): 0
Plant response rating, Ducksalad (Heteranthera limosa): 0

Cc1nn(-c2ccccc2Oc2ncc(Cl)cn2)cc1Cl [Compound 39]
Plant response rating, Foxtail, Giant (giant foxtail [1]; [16]): 0
Plant response rating, Foxtail, Giant (giant foxtail [1]; [17]): 0
Plant response rating, Foxtail, Giant (giant foxtail [2]): 10
Foxtail, Giant plant response rating (giant foxtail [2]): 50
Plant response rating, Crabgrass, Large (large (Lg) crabgrass [3]): 10
Crabgrass, Large plant response rating (large (Lg) crabgrass [3]): 90
Plant response rating, Pigweed (pigweed [4]): 0
Pigweed plant response rating (pigweed [4]): 0
Plant response rating, Crabgrass, Large (large (Lg) crabgrass [5]; [16]): 0
Plant response rating, Crabgrass, Large (large (Lg) crabgrass [5]; [17]): 10
Plant response rating, Barnyardgrass (barnyardgrass [6]): 0
Plant response rating, Corn (corn [7]): 0
Corn plant response rating (corn [7]): 0
Plant response rating, Velvetleaf (velvetleaf [8]; [16]): 20
Plant response rating, Velvetleaf (velvetleaf [8]; [17]): 30
Plant response rating, Wheat (wheat [9]): 0
Wheat plant response rating (wheat [9]): 0
Plant response rating, Barnyardgrass (barnyardgrass [10]): 0
Barnyardgrass plant response rating (barnyardgrass [10]): 10
Plant response rating, Morningglory (morningglory): 0
Morningglory plant response rating (morningglory): 0
Plant response rating, Wheat (wheat [11]; [16]): 0
Plant response rating, Wheat (wheat [11]; [17]): 0
Plant response rating, Corn (corn [12]; [16]): 0
Plant response rating, Corn (corn [12]; [17]): 10
Plant response rating, Barnyardgrass (barnyardgrass [13]; [16]): 0
Plant response rating, Barnyardgrass (barnyardgrass [13]; [17]): 0
Plant response rating, Velvetleaf (velvetleaf [14]): 10
Velvetleaf plant response rating (velvetleaf [14]): 20
Plant response rating, Pigweed (pigweed [15]; [16]): 10
Plant response rating, Pigweed (pigweed [15]; [17]): 40
Plant response rating, Sedge, Umbrella (sedge, umbrella): 30
Plant response rating, Rice (rice): 0
Plant response rating, Ducksalad (Heteranthera limosa): 50
